Test results reported in PMC9412362, “Design, Synthesis, and Characterization of Novel Coordination Compounds of Benzimidazole Derivatives with Cadmium” (Pharmaceutics, 2022).
Values after ≈ are worked out from the molar mass of the structure shown. Read-outs that look alike come from different tables or passages of the source.

Key:
A549 cells = experiment: MTT cytotoxicity assay, lung adenocarcinoma A549; format: cell-based, human; details: lung carcinoma A549, MTT assay after 24 h of incubation, read-out: IC50 ± SD, A549
Protocol: (§1) Samples of complexes (about 20 mg) were digested in a concentrated mixture of 36% HCl (1 mL) and 65% HNO3 (6 mL). The contents of Cd (II) in the solid complexes were determined with an F-AAS spectrometer (Analytik Jena, contraAA 300, Jena, Germany) with a continuous source of light and using an air/acetylene flame (Analytik Jena, contraAA 300). Absorbances were measured at the analytical spectral lines at 228.8 nm for Cd (II). The limit of quantification was 0.004 mg/L for Cd (II). The solid samples were decomposed using an Anton Paar Multiwave 3000 (Graz, Austria) closed-system instrument. Mineralization was carried out for 45 min at 240 °C under a pressure of 60 bar. The contents of carbon, hydrogen, and nitrogen were determined with an instrument from Vario Micro Company Elementar Analysensysteme GmbH (Langenselbold, Germany). FTIR spectra were recorded with an IR Tracer-100 Schimadzu Spectrometer (4000–600 cm^−1 with an accuracy of recording of 1 cm^−1, Kyoto, Japan) using KBr pellets. The thermal analyses were carried out with a Netzsch STA 449 F1 Jupiter thermoanalyzer (Netzsch-Geratebau GmbH, Selb, Germany) coupled with a Netzsch Aeolos Quadro QMS 403 mass spectrometer (Netzsch-Geratebau GmbH, Selb, Germany). The samples were heated up to 1000 °C in corundum crucibles with a heating rate of 10 °C/min in an atmosphere of synthetic air (20% O2, 80% N2). The cytotoxic effects of the compounds were evaluated using glioblastoma (T98G), neuroblastoma (SK-N-AS), and lung adenocarcinoma (A549) cell lines and normal human skin fibroblasts (CCD-1059Sk). T98G and SK-N-AS cells were cultured in high-glucose DMEM and A549 cells were cultured in DMEM/F12, while CCD-1059Sk cells were cultured in MEM. All media were supplemented with 10% (FBS), 100 U/mL of penicillin, and […] of streptomycin (PenStrep). Cells were incubated at 37 °C in a humidified atmosphere of 5% CO2. Stock solutions were prepared by dissolving the compounds in sterile dimethyl sulfoxide (DMSO) to obtain a concentration of 50 mg/mL. The cells were seeded into sterile 96-well plates (Nunc) at a density of 1 × 10^5 cells/mL. After 24 h of incubation, the medium was removed from each well, and then the cells were incubated for the next 24 h with different concentrations of the tested compounds (1–100 µg/mL) in their respective media containing 2% FBS. The cytotoxicity of the compounds was evaluated using an MTT assay, which was based on the conversion of 3-(4,5-dimethylthiazol-2-yl)-2,5-diphenyltetrazolium bromide (MTT) into dark-blue formazan crystals. Briefly, after 24 h of incubation of the cells with varying concentrations of the tested compounds, all culture media were removed from the plates. The cells were washed with PBS, and then 100 µL of medium containing 10% MTT solution (5 mg/mL) was added to each well. After 3 h of incubation, 100 µL (per well) of 10% SDS buffer solution was added to solubilize the formazan crystals. After overnight incubation, the absorbance was measured at 570 nm using a microplate reader (Epoch, BioTek Instruments). Experiments were repeated twice, and the measurements in each experiment were run in triplicate. The viability of the investigated cells was expressed as the percentage of the viability of the untreated cells, and the results were transformed into IC50 values (expressed as mean ± SD). The complexes were screened for antibacterial and antifungal activity by using the micro-dilution broth method with Mueller–Hinton broth for the growth of bacteria or Mueller–Hinton broth with 2% glucose for the growth of fungi. […]

[1] = system: S. epidermidis ATCC 12228; experiment: MIC, micro-dilution broth method; format: cell-based, Staphylococcus epidermidis; details: for MIC, S. epidermidis ATCC 12228: Gram-positive bacteria, micro-dilution broth
Protocol: as §1

B. subtilis ATCC 6633 = experiment: MIC, micro-dilution broth method; format: cell-based, Bacillus subtilis; details: for MIC, B. subtilis ATCC 6633: Gram-positive bacteria, micro-dilution broth
Protocol: as §1

[2] = system: C. parapsilosis ATCC 22019; experiment: MIC, micro-dilution broth method; format: cell-based, Candida parapsilosis; details: Yeasts; micro-dilution broth with 2% glucose
Protocol: as §1

P. aeruginosa ATCC 9027 = experiment: MIC, micro-dilution broth method; format: cell-based, Pseudomonas aeruginosa; details: for MIC, P. aeruginosa ATCC 9027: Gram-negative bacteria
Protocol: as §1

CCD-1059Sk cells = experiment: MTT cytotoxicity assay, normal human skin fibroblasts CCD-1059Sk; format: cell-based; details: normal human fibroblasts CCD-1059Sk, MTT assay after 24 h of incubation; read-out: IC50 ± SD, CCD-1059-Sk
Protocol: as §1

S. aureus ATCC 25923 = experiment: MIC, micro-dilution broth method; format: cell-based, Staphylococcus aureus; details: for MIC, S. aureus ATCC 25923: Gram-positive bacteria, micro-dilution broth
Protocol: as §1

C. glabrata ATCC 2091 = experiment: MIC, micro-dilution broth method; format: cell-based; details: Yeasts; micro-dilution broth with 2% glucose
Protocol: as §1

M. luteus ATCC 10240 = experiment: MIC, micro-dilution broth method; format: cell-based, Micrococcus luteus; details: for MIC, M. luteus ATCC 10240: Gram-positive bacteria, micro-dilution broth
Protocol: as §1

T98G cells = experiment: MTT cytotoxicity assay, glioblastoma T98G; format: cell-based, human; details: MTT assay after 24 h of incubation, read-out: IC50 ± SD, T98G
Protocol: as §1

SK-N-AS cells = experiment: MTT cytotoxicity assay, neuroblastoma SK-N-AS; format: cell-based, human; details: MTT assay after 24 h of incubation, read-out: IC50 ± SD, SK-N-AS
Protocol: as §1

P. mirabilis ATCC 12453 = experiment: MIC, micro-dilution broth method; format: cell-based, Proteus mirabilis; details: for MIC, P. mirabilis ATCC 12453: Gram-negative bacteria
Protocol: as §1

[3] = system: S. typhimurium ATCC 14028; experiment: MIC, micro-dilution broth method; format: cell-based, Salmonella Typhimurium; details: Gram-negative bacteria
Protocol: as §1

E. faecalis ATCC 29212 = experiment: MIC, micro-dilution broth method; format: cell-based, Enterococcus faecalis; details: for MIC, E. faecalis ATCC 29212: Gram-positive bacteria, micro-dilution broth
Protocol: as §1

K. pneumoniae ATCC 13883 = experiment: MIC, micro-dilution broth method; format: cell-based, Klebsiella pneumoniae; details: for MIC, K. pneumoniae ATCC 13883: Gram-negative bacteria
Protocol: as §1

C. albicans ATCC 102231 = experiment: MIC, micro-dilution broth method; format: cell-based, Candida albicans; details: Yeasts; micro-dilution broth with 2% glucose
Protocol: as §1

E. coli ATCC 25922 = experiment: MIC, micro-dilution broth method; format: cell-based, Escherichia coli; details: for MIC, E. coli ATCC 25922: Gram-negative bacteria
Protocol: as §1

B. cereus ATCC 10876 = experiment: MIC, micro-dilution broth method; format: cell-based, Bacillus cereus; details: for MIC, B. cereus ATCC 10876: Gram-positive bacteria, micro-dilution broth
Protocol: as §1

| SMILES | IC50 (A549 cells) | MIC, S. epidermidis ATCC 12228 [1] | MIC, B. subtilis ATCC 6633 (B. subtilis ATCC 6633) | MIC, C. parapsilosis ATCC 22019 [2] | MIC, P. aeruginosa ATCC 9027 (P. aeruginosa ATCC 9027) | IC50 (CCD-1059Sk cells) | MIC, S. aureus ATCC 25923 (S. aureus ATCC 25923) | MIC, C. glabrata ATCC 2091 (C. glabrata ATCC 2091) | MIC, M. luteus ATCC 10240 (M. luteus ATCC 10240) | IC50 (T98G cells) | IC50 (SK-N-AS cells) | MIC, P. mirabilis ATCC 12453 (P. mirabilis ATCC 12453) | MIC, S. typhimurium ATCC 14028 [3] | MIC, E. faecalis ATCC 29212 (E. faecalis ATCC 29212) | MIC, K. pneumoniae ATCC 13883 (K. pneumoniae ATCC 13883) | MIC, C. albicans ATCC 102231 (C. albicans ATCC 102231) | MIC, E. coli ATCC 25922 (E. coli ATCC 25922) | MIC, B. cereus ATCC 10876 (B. cereus ATCC 10876) | further results |
| --- | --- | --- | --- | --- | --- | --- | --- | --- | --- | --- | --- | --- | --- | --- | --- | --- | --- | --- | --- |
| O.[Cl][Cd][Cl].c1cnc2[nH]c(-c3ccncc3)nc2c1 [C2, Cd(L2)Cl2∙H2O] | 34.1 ± 0.55 µM | 500 µg/mL | 0.98 µg/mL | 7.8 µg/mL | >1000 µg/mL | 44.07 ± 0.33 µM | 1000 µg/mL | 31.3 µg/mL | 7.8 µg/mL | 65.25 ± 0.63 µM | 22.5 µM | >1000 µg/mL | >1000 µg/mL | 125 µg/mL | >1000 µg/mL | 125 µg/mL | 1000 µg/mL | 500 µg/mL | – |
| O.O.[Cl][Cd][Cl].c1cncc(-c2nc3cccnc3[nH]2)c1 [C3, Cd(L3)Cl2∙2H2O] | 47.2 ± 2.1 µM | 1000 µg/mL | 7.8 µg/mL | 15.6 µg/mL | 125 µg/mL | 40.4 ± 0.41 µM | 1000 µg/mL | 31.3 µg/mL | 7.8 µg/mL | 55.7 ± 2.5 µM | 34.5 ± 0.41 µM | 31.3 µg/mL | 125 µg/mL | >1000 µg/mL | 250 µg/mL | 125 µg/mL | 125 µg/mL | >1000 µg/mL | – |
| Brc1cnc2[nH]c(-c3cccnc3)nc2c1.O.O.[Cl][Cd][Cl] [C4, Cd(L4)Cl2∙2H2O] | 37.3 ± 2.1 µM | 250 µg/mL | 7.8 µg/mL | 7.8 µg/mL | >1000 µg/mL | 27.7 ± 0.9 µM | 1000 µg/mL | 31.3 µg/mL | 7.8 µg/mL | 42.5 ± 0.96 µM | 25.3 ± 1 µM | 1000 µg/mL | 1000 µg/mL | 250 µg/mL | 1000 µg/mL | 125 µg/mL | 500 µg/mL | 250 µg/mL | – |
| O=C(O)c1cn(C2CC2)c2cc(N3CCNCC3)c(F)cc2c1=O [Cip, ciprofloxacin, reference compound] | – | – | – | – | – | – | – | – | – | – | – | – | – | – | – | – | – | – | MIC (P. aeruginosa ATCC 9027; Pseudomonas aeruginosa, ATCC9027, Gram-negative bacteria): 0.49 µg/mL (≈ 1.48 µM); MIC (P. mirabilis ATCC 12453; Proteus mirabilis, ATCC12453, Gram-negative bacteria): 0.03 µg/mL (≈ 0.0905 µM); MIC ([3]; Salmonella enterica): 0.061 µg/mL (≈ 0.184 µM); MIC (K. pneumoniae ATCC 13883; Klebsiella pneumoniae, ATCC13883, Gram-negative bacteria): 0.12 µg/mL (≈ 0.362 µM); MIC (E. coli ATCC 25922; Escherichia coli, ATCC25922, Gram-negative bacteria): 0.015 µg/mL (≈ 0.0453 µM) |
| COc1cc([C@@H]2c3cc4c(cc3[C@@H](O[C@@H]3O[C@@H]5CO[C@@H](C)O[C@H]5[C@H](O)[C@H]3O)[C@H]3COC(=O)[C@H]23)OCO4)cc(OC)c1O [Etoposide, reference compound] | – | – | – | – | – | > 170 µM | – | – | – | – | 115 ± 3.5 µM | – | – | – | – | – | – | – | IC50 (A549 cells; Homo sapiens): > 170 µM; IC50 (T98G cells; Homo sapiens): > 170 µM; IC50 (SK-N-AS cells; Homo sapiens, SK-N-AS, 24 h): 115 µM |
| C[C@@H]1[C@H](O)[C@@H](C)/C=C/C=C/CC/C=C/C=C/C=C/C=C/C(O[C@H]2O[C@H](C)[C@@H](O)[C@H](N)[C@@H]2O)CC2O[C@](O)(CC(O)C(O)CCC(O)CC(O)CC(O)CC(=O)O[C@H]1C)CC(O)C2C(=O)O (stereo partly shown) [Nys, nystatin, reference compound] | – | – | – | 0.24 µg/mL (≈ 0.259 µM) | – | – | – | 0.48 µg/mL (≈ 0.518 µM) | – | – | – | – | – | – | – | 0.24 µg/mL (≈ 0.259 µM) | – | – | – |
| CN[C@H](CC(C)C)C(=O)N[C@H]1C(=O)N[C@@H](CC(N)=O)C(=O)N[C@H]2C(=O)N[C@H]3C(=O)N[C@H](C(=O)N[C@H](C(=O)O)c4cc(O)cc(O)c4-c4cc3ccc4O)[C@H](O)c3ccc(c(Cl)c3)Oc3cc2cc(c3O[C@@H]2O[C@H](CO)[C@@H](O)[C@H](O)[C@H]2O[C@H]2C[C@](C)(N)[C@H](O)[C@H](C)O2)Oc2ccc(cc2Cl)[C@H]1O [Van, Vancomycin, reference compound] | – | – | – | – | – | – | – | – | – | – | – | – | – | – | – | – | – | – | MIC ([1]; Staphylococcus epidermidis, ATCC12228, read-out: MIC, S. epidermidis ATCC 12228): 0.98 µg/mL (≈ 0.676 µM); MIC (B. subtilis ATCC 6633; Bacillus subtilis, ATCC6633, read-out: MIC, B. subtilis ATCC 6633): 0.24 µg/mL (≈ 0.166 µM); MIC (S. aureus ATCC 25923; Staphylococcus aureus, ATCC25923, read-out: MIC, S. aureus ATCC 25923): 0.98 µg/mL (≈ 0.676 µM); MIC (M. luteus ATCC 10240; Micrococcus luteus, ATCC10240, read-out: MIC, M. luteus ATCC 10240): 0.12 µg/mL (≈ 0.0828 µM); MIC (E. faecalis ATCC 29212; Enterococcus faecalis, ATCC29212, read-out: MIC, E. faecalis ATCC 29212): 1.95 µg/mL (≈ 1.35 µM); MIC (B. cereus ATCC 10876; Bacillus cereus, ATCC10876, read-out: MIC, B. cereus ATCC 10876): 0.98 µg/mL (≈ 0.676 µM) |
